Measurements taken from PubChem BioAssay (NCI).
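Test compounds were applied to cells in 96-well plates for 48 hours at 5 doses. GI50: concentration for 50% inhibition of growth. TGI is the concentration that stops growth completely.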

Assays:
Assay in all cases: NCI-60 cell line screen, 48 h
[1] = system: MDA-N
[2] = system: SNB-78 CNS
[3] = system: KM20L2 colon
[4] = system: DLD-1 colon
[5] = system: HOP-18 NSCLC
[6] = system: LXFL 529 NSCLC
[7] = system: M19-MEL melanoma
[8] = system: DMS 114 small cell lung
[9] = system: RXF-631 renal

SMILES	TGI [1] [µM]	TGI [2] [µM]	TGI [3] [µM]	TGI [4] [µM]	TGI [5] [µM]	TGI [6] [µM]	TGI [7] [µM]	TGI [8] [µM]	TGI [9] [µM]	GI50 [7] [µM]
O=NN(Cc1ccc(Cl)cc1)C(C(=O)O)c1ccccc1 (stereo not given)	> 100	–	–	–	–	–	–	–	–	–
CCOC(=O)CCc1cc(=O)oc2cc(O)cc(O)c12	> 100	–	–	–	–	–	–	–	–	–
Clc1ccc(C2N3CCCCC3[C@@H]3c4[nH]c5ccccc5c4CCN23)cc1 (stereo not given in full)	–	> 100	96.5	> 100	> 100	> 100	94.7	> 100	–	–
N#CC(C(=N/O)/C(=N/O)C(C#N)c1ccc(Cl)cc1)c1ccc(Cl)cc1 (stereo not given)	–	> 100	> 100	> 100	> 100	> 100	> 100	> 100	–	–
CCCCNC1=C(C(=O)OCC)C(=O)CO1	–	–	> 100	> 100	> 100	> 100	> 100	> 100	–	–
CCCCN(CCCC)C(=O)C(=O)C(C#N)c1ccc(C)cc1 (stereo not given)	–	> 100	> 100	> 100	> 100	> 100	> 100	> 100	–	–
O=C1CNCCCN2CCN(CCCNCC(=O)Nc3ccc(cc3)S(=O)(=O)c3ccc(cc3)NC(=O)CNCCCN3CCN(CCCNCC(=O)Nc4ccc(cc4)S(=O)(=O)c4ccc(cc4)N1)CC3)CC2	42.2	–	–	–	–	–	–	–	–	–
CN(C)CCC(=O)N1C/C(=C/c2ccccc2)C(=O)/C(=C\c2ccccc2)C1	3.71	16.1	2.89	3.25	10.9	5.51	2.83	4.1	10.6	–
CC12CC[C@@H](C(C)(C)O)C1[C@@H](O)CC1(C)C2CCC2[C@@]3(C)CC[C@H](O)C(C)(C)C3C(O)C[C@]21C (stereo not given in full)	–	38.8	28.3	53.3	41.1	29.4	52.1	38.2	69	–
CCOC(=O)NC(=O)c1cn(C2OC(COC(=O)CCCCCCCCC(=O)OCC3OC(n4cc(C(=O)NC(=O)OCC)c(=O)[nH]c4=O)C(O)C3O)C(O)C2O)c(=O)[nH]c1=O (stereo not given)	–	> 100	> 100	> 100	> 100	> 100	> 100	> 100	> 100	–
O=C1OCc2c1cc1ccc(O)c(OC3OC(CO)C(O)C(O)C3O)c1c2-c1ccc2c(c1)OCO2 (stereo not given)	–	> 100	> 100	–	–	> 100	> 100	> 100	> 100	38.2
CN(C(=O)C12C3C4C1C1C2C3C41C(=O)C(C)(C)C)C(C)(C)C (stereo not given)	–	> 100	> 100	> 100	–	> 100	> 100	> 100	> 100	–
CC1CCC2(C(=O)O)CCC3(C)C(=CCC4C5(C)CC(O)C(O)C(C)(CO)C5C(O)CC43C)C2C1C (stereo not given)	> 57.6	–	–	–	–	–	–	–	–	–
O=C(O)Cn1ccc(=O)c2ccc([N+](=O)[O-])cc21	> 100	–	–	–	–	–	–	–	–	–
N#C/C(=C/c1ccsc1)C(=O)c1ccccc1	–	> 100	> 100	> 100	> 100	> 100	> 100	> 100	–	–
O=C(N/N=C/c1ccccc1O)c1cccc([N+](=O)[O-])c1	–	> 100	> 100	> 100	> 100	> 100	66.2	39.3	–	–
COc1cnc2cc(C(=O)O)c3c([N+](=O)[O-])cccc3c2c1	> 100	–	–	–	–	–	–	–	–	–
Cc1nc2cccc([N+](=O)[O-])c2c(NCCCN(C)C)c1C	> 100	–	–	–	–	–	–	–	–	–
CC1(Cl)C(=O)NC(=O)N(C2CC(N=[N+]=[N-])C(CO)O2)C1N=[N+]=[N-] (stereo not given)	–	–	> 100	> 100	–	> 100	> 100	> 100	> 100	–
Cc1ccc(C)c(NC(=O)CC/C(=N\NC(=O)C(=O)NN)C(C)C(=O)c2ccc(O)cc2)c1 (stereo not given)	–	> 100	> 100	> 100	> 100	> 100	> 100	–	–	–
COc1ccc2[nH]c3c(C)c4c(c(C)c3c2c1)CN(C)CC4	–	80.6	34.8	93.7	31.3	36.1	31.6	33.8	58.4	–
OCCC1(O)CCC(O)CC1 (stereo not given)	–	> 100	–	> 100	> 100	> 100	> 100	> 100	–	–
CC1OC(n2cc(F)c(=O)[nH]c2=O)CCC1O (stereo not given)	> 100	> 100	> 100	> 100	> 100	> 100	> 100	–	–	–
